Test results as given in patent US20250195433A1, “Compositions Having Improved Bioavailability of Therapeutics and Uses Thereof” (TRx Biosciences Limited, priority 2022, published 2025).

How the values were obtained:
[1] = Solubility of olaparib in glycerolipids with and without digestion enhancers; assay type: physicochemical; conditions: 55 mg in 1 g of only MAISINE CC, only GELUCIRE 43/01, or their admixture, 130° C., stirred at least 60 minutes
[2] = Miscibility / self-emulsification test modelling ICH dissolution testing; assay type: physicochemical; conditions: 1 g of 100% or 75% preparation in 1 L PBS with […] curcumin, 37° C., stirring 300 rpm 10 min, then 10 min without stirring
Protocol: To assess whether oleic acid could self-emulsify at the concentrations used in the disclosed pharmaceutical compositions, experiments was performed that were designed to model dissolution testing according to International Council for Harmonisation (ICH) guidelines. […] Miscibility experiments were performed using two concentrations of oleic acid nominally above the CMC concentration for this fatty acid. In one series of experiments, 1 g of 100% oleic acid was added to the dissolution media. The control compound was 1 g of 100% MAISINE™ CC. In a second series of experiments 1 g of 75% oleic acid (diluted with 250 mg of MAISINE™ CC) was added to the dissolution media. The control compound was 1 g of 75% MAISINE™ CC. The miscibility of oleic acid and MAISINE™ CC was assessed by observing the dissolution media for 10 minutes with constant stirring and then 10 minutes without stirring. Photographs were taken at time 0, 1, 2, 3, 4, 5 and 10 minutes during the stirring phase and 2, 4 and 10 minutes after stirring ceased.

SMILES | solubility of olaparib in glycerolipids without digestion enhancers [1] | miscibility in dissolution media [2]
O=C(c1cc(Cc2n[nH]c(=O)c3ccccc23)ccc1F)N1CCN(C(=O)C2CC2)CC1 [olaparib] | remained insoluble | –
CCCCCCCC/C=C\CCCCCCCC(=O)O [oleic acid] | – | not miscible
